Data set [1] deals with five strains of EV-D68 (B1, B2, and D clades). The data set can be described thus: Broad-spectrum antiviral activity, summary over five EV-D68 strains. The data set is classed as cell-based, Enterovirus D68. The procedure:
(§1) Cell lines and viruses. Human rhabdomyosarcoma (R.D., ATCC, CCL-136) cells were maintained at 37° C. in a 5% CO2 atmosphere and cultured in Dulbecco's modified Eagle's medium (DMEM) supplemented with 10% fetal bovine serum (FBS) and 1% penicillin-streptomycin antibiotics. The following reagents were obtained through BEI Resources, NIAID, NIH: Human Enterovirus D68, US/MO/14-18949, NR-49130; Enterovirus D68, US/MO/14-18947, NR-49129; Enterovirus D68, US/IL/14-18952, NR-49131; Enterovirus D68, US/KY/14-18953, NR-49132; Enterovirus D68, US/IL/14-18956, NR-49133.
(§2) Antiviral assays. Cells for antiviral assays were seeded and grown overnight at 37° C. in a 5% CO2 atmosphere for ˜90% confluency the next day. For all infections, cells were washed with PBS containing magnesium and calcium and infected with virus diluted in DMEM with 2% FBS and 30 mM MgCl2. Viruses were incubated for at least 1 h at 33° C. in a 5% CO2 atmosphere, followed by the addition of compound as well as 1% penicillin-streptomycin. […] For cytopathic effect (CPE) assays, cells were stained with 66 µg/mL neutral red for 2 h and neutral red uptake was measured at absorbance 540 nm using a Multiskan FC Microplate Photometer (ThermoFisher Scientific). The EC50 and CC50 values were calculated from best-fit dose response curves using GraphPad Prism. […]

Data set [2] has as its system EV-D68 US/MO/14-18947 (clade B1). The data set can be described thus: Broad-spectrum antiviral activity (Table 1), US/MO/14-18947. It counts as cell-based. Particulars: Enterovirus D, EVD68. The protocol:
as §1, §2

The nature of data set [3]: Cytotoxicity by neutral red uptake in R.D. cells, no viral infection. The data set is classed as cell-based, Human. To be noted: human, R.D. (rhabdomyosarcoma, ATCC CCL-136) cells, uninfected. The protocol:
as §1
(§3) Antiviral assays. Cells for antiviral assays were seeded and grown overnight at 37° C. in a 5% CO2 atmosphere for ˜90% confluency the next day. For all infections, cells were washed with PBS containing magnesium and calcium and infected with virus diluted in DMEM with 2% FBS and 30 mM MgCl2. Viruses were incubated for at least 1 h at 33° C. in a 5% CO2 atmosphere, followed by the addition of compound as well as 1% penicillin-streptomycin. For CC50 measurements, the experiment was performed similarly but excluded viral infection. For cytopathic effect (CPE) assays, cells were stained with 66 µg/mL neutral red for 2 h and neutral red uptake was measured at absorbance 540 nm using a Multiskan FC Microplate Photometer (ThermoFisher Scientific). The EC50 and CC50 values were calculated from best-fit dose response curves using GraphPad Prism. For plaque reduction assays, an 1.2% avicel microcrystalline cellulose (FMC BioPolymer, Philadelphia, PA) overlay was used and cells were stained after 3 days as previously described^26.

Data set [4] concerns EV-D68 US/IL/14-18952 (clade B2). Put plainly: Broad-spectrum antiviral activity (Table 1), US/IL/14-18952. The data set is classed as cell-based, Enterovirus D68. To be noted: Enterovirus D, EVD68. The procedure:
as §1, §2

Another data set has as its target EV-D68 2A^pro (Enterovirus D68, UniProt A0A097BW19). The data set can be described thus: FRET-based enzymatic assay of EV-D68 2Apro inhibition. It counts as biochemical. The protocol:
Protein expression and purification. EV-D68 2A^pro gene from strain US/KY/14-18953 was ordered from Genscript (Piscataway, NJ) in pET28b(+) vector with E. coli codon optimization. 2A^pro gene was subcloned into pE-SUMOstar vector according to the manufacturers protocol. Plasmid encoding WT-2A^pro was transformed into BL21(DE3) competent E. coli cells, and a single colony was picked and used to inoculate 10 mL of L.B. grown supplemented with 50 μg/mL kanamycin at 37° C. at 250 rpm. The 10 mL inoculant was added to 1 L of L.B. with 50 μg/mL kanamycin and grown to an OD600 of 0.8-1.0, cooled to 18° C., then induced using 0.5 mM IPTG. Induced cultures were incubated at 18° C. for an additional 24 h, then harvested and resuspended in lysis buffer (25 mM Tris (pH 7.5); 750 mM NaCl, 2 mM DTT with 0.5 mg/mL lysozyme, 0.5 mM PMSF and 0.02 mg/mL DNase I) and lysed with alternating sonication and French press cycles. The cell debris were removed by centrifugation at 12,000×g for 45 min […]. The supernatant was incubated with Ni-NTA resin for over 2 h at 4° C. on a rotator. The Ni-NTA resin was thoroughly washed with 50 mM imidazole in wash buffer (50 mM Tris (pH 7.5), 150 mM NaCl, and 2 mM DTT); for the SUMO-tagged protein, the protein was directly eluted with 300 mM imidazole; for the nontagged 2A^pro Ni-NTA resin was treated with SUMO Protease 1 to remove the SUMO tag, then 2A^pro was washed off from the column with 10 mM imidazole in wash buffer. The imidazole was removed via dialysis or 10 K molecular weight cut-off centrifugal concentrator spin column. The purity of the protein was confirmed with SDS-PAGE. The protein concentration was determined by classic BCA assay using bovine serum albumin as a standard. EV-D68 3C^pro in pET28b(+) vector was expressed as previously described^10.
Peptide synthesis. The FRET substrate of EV-D68 2A^pro, Dabcyl-KIRIVNT/GPGFGGE-Edans, was synthesized using the Fmoc solid phase synthesis strategy.
Enzymatic assays. The reaction buffer contains 50 mM Tris (pH7.0), 150 mM NaCl, 10% Glycerol, and 2 mM DTT, and the reaction was carried out at 30° C. in Cytation 5 imaging reader (Fisher Scientific) with EX360/40-EM460/40 filter. Reactions were monitored every 90 sec. […] The reaction was initiated by adding 20 μM of FRET substrate, and the reaction was monitored for 2 hours and initial velocity was calculated for the first 30 minutes via linear regression.

A further data set has as its system EV-D68 US/MO/14-18947. The data set can be described thus: CPE assay (neutral red) with EV-D68 US/MO/14-18947 in R.D. cells. It counts as cell-based, Enterovirus D68. Particulars: CPE assay, EV-D68 US/MO/14-18947 in R.D. cells. In short, it runs like this:
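R.D. cells infected (DMEM, 2% FBS, 30 mM MgCl2) for ≥1 h at 33° C before compound addition; CPE read by neutral red uptake ([…], 2 h, A540), plaque reduction under 1.2% avicel overlay, stained after 3 days. EC50 and CC50 (uninfected cells) from dose-response curve fits.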

Another data set relates to R.D. cells. Put plainly: Cytotoxicity by neutral red uptake in R.D. cells, no viral infection. It counts as cell-based, Human. The procedure: as §1, §3
Data set [5] concerns EV-D68 US/KY/14-18953 (clade D). Put plainly: Broad-spectrum antiviral activity (Table 1), US/KY/14-18953. It counts as cell-based, Enterovirus D68. To be noted: Enterovirus D, EVD68. The procedure:
as §1, §2

Where two headings read alike, the source gives them in different places.

Sequence of EV-D68 2A^pro (A0A097BW19 entry or part of it): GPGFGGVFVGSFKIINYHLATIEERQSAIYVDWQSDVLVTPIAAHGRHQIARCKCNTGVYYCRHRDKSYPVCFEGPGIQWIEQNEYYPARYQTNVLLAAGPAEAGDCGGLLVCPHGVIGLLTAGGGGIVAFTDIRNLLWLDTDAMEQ

A word on the EC50: it is the concentration that produces a half-maximal response. As a reminder, the CC50 is the concentration giving 50% cytotoxicity. Turning to `CC(C)(C)C(NC(=O)CC12CC3CC(CC(C3)C1)C2)C(=O)N1CC2CCCC2C1C(=O)NC(C(=O)C(=O)NC1CC1)C1CCCCC1` [Jun11762, (1S,3aR,6aS)-2-((S)-2-(2-((3S,5S,7S)-adamantan-1-yl)acetamido)-3,3-dimethylbutanoyl)-N—((S)-1-cyclohexyl-3-(cyclopropylamino)-2,3-dioxopropyl)octahydrocyclopenta[c]pyrrole-1-carboxamide], the EC50 in data set [1] (Enterovirus D, EVD68, read-out: EC50 values over all five strains) is 43 to 269 nM; in data set [2], 43 ± 3.3 nM; in data set [4] (EV-D68 US/IL/14-18952 (clade B2), read-out: EC50), 269 ± 21.9 nM. For the same molecule, in data set [1] (five EV-D68 strains, versus telaprevir), the “fold improvement of EC50 compared to telaprevir” value is given as 3.1-4.6 fold. In addition, the CC50 in data set [3] is above 150000 nM. Moreover, the “enzymatic inhibition, in words, relative to the named comparator” value at EV-D68 2A^pro is “comparable enzymatic inhibition and antiviral activity as Jun8861”. Further, the “antiviral activity, in words, relative to the named comparator” value in the data set on EV-D68 US/MO/14-18947 was “comparable enzymatic inhibition and antiviral activity as Jun8861”.

As to `CCC[C@H](NC(=O)[C@@H]1[C@H]2CCC[C@H]2CN1C(=O)[C@@H](NC(=O)[C@@H](NC(=O)c1cnccn1)C1CCCCC1)C(C)(C)C)C(=O)C(=O)NC1CC1` [Telaprevir, reference compound], it took 83200 nM to reach half-maximal cytotoxicity in the data set with R.D. cells (CC50). The values for the EC50 in data set [4] and in data set [5] were 828 ± 107 nM and 209 ± 37.1 nM, respectively.

For the origin of these results see patent publication US20250051283A1, “THERAPEUTIC COMPOUNDS AND METHODS” (priority 2023, published 2025).
